These are literature values, as cited in patent US20220339166A1, “POST COVID19 VACCINE REMEDIES” (priority 2021, published 2022).

The target in one data set is ACE2 (Homo sapiens, UniProt Q9BYF1).
In another data set the target is ODC (Homo sapiens, UniProt P11926).
For another data set, the system named is mouse bone marrow. The note with it: in vivo.

Each structure is given as a SMILES string. Read-outs that look alike come from different tables or passages of the source.

Chain of ACE2 (Q9BYF1 18-805): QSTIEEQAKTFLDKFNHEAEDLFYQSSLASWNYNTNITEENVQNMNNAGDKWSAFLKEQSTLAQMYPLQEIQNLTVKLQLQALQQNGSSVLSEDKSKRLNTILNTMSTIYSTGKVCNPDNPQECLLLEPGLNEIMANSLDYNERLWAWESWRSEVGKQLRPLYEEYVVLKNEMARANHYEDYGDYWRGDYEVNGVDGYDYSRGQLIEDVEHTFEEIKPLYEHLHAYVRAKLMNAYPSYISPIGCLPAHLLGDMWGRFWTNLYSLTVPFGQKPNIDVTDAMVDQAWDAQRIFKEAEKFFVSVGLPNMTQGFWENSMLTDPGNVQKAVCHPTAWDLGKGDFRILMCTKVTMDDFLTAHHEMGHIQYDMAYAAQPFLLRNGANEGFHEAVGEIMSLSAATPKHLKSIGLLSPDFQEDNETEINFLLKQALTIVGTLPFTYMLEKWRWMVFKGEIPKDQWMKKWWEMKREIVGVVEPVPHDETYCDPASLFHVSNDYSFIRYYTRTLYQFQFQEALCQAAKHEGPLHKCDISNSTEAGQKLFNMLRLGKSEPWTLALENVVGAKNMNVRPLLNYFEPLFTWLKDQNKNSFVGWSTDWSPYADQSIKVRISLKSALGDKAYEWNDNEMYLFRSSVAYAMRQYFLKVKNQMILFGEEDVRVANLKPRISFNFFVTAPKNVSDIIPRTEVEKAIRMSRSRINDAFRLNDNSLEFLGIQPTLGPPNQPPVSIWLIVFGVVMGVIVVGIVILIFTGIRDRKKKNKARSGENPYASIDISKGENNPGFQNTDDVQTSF
Chain of ODC (P11926 whole entry): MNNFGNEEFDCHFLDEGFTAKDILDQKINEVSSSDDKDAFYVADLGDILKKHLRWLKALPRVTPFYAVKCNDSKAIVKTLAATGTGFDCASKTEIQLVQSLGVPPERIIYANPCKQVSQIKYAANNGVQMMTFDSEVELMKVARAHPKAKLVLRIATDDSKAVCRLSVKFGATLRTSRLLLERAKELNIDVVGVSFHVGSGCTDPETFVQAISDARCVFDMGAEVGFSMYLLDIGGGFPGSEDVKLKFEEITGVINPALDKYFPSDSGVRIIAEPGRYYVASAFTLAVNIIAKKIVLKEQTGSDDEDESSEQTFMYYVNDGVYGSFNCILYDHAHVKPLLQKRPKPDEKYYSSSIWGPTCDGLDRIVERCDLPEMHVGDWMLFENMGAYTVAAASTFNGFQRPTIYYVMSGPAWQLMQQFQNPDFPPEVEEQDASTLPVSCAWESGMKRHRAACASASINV

Consider `CC1CS(=O)(=O)CCN1/N=C/c1ccc([N+](=O)[O-])o1` (stereo not drawn) [nifurtimox], for which, in the data set on Trypanosoma cruzi (in vivo), the effective in curing is roughly 100%. As to `O=C([O-])O.[Na+]` [sodium bicarbonate], the “reduction of ACE2 affinity and interference with fusion domain for S1 spike protein” value at ACE2 is given as 17%. In the case of `O=C(Cn1ccnc1[N+](=O)[O-])NCc1ccccc1` [benznidazole], the effective in curing in the data set on Trypanosoma cruzi (given soon after infection, at the onset of the acute phase) is given as roughly 100%. Take `NCCCC(N)(C(=O)O)C(F)F` (stereo not drawn) [DFMO]: the “stalls DNA synthesis” value on ODC is 70-80%. As for `NCCS` [Cysteamine], the DNA synthesis result in the data set on mouse bone marrow was “inhibits DNA synthesis”. Consider `NCCCC[C@H](N)C(=O)O` [lysine], for which the “reduction of ACE2 affinity and interference with fusion domain for S1 spike protein” value on ACE2 is listed as 10%.
